Data as given in US9981960B2, “Pyrrolidine compound and application as melanocortin receptor agonist” (MITSUBISHI TANABE PHARMA CORPORATION, priority 2014, dated 2018).

What was measured:
human MC4R = human MC4R (Homo sapiens, UniProt P32245); experiment: human MC4R agonist activity; type: cell-based
Human MC1R = molecular target: T1, Human MC1R (Homo sapiens, UniProt Q01726); experiment: MCR agonist measurement (cAMP measurement), human MC1R agonist activity in human melanoma cell line HBL; type: cell-based; settings: HBL cells; for EC50: 37° C. for 30 minutes, intracellular cAMP by fluorescence method; for Human MC1R IA %: Intrinsic Activity, vehicle cAMP = 0%, αMSH at 10^-6 M = 100%
T1 construct: endogenous in cells; host or cells: human melanoma cell line HBL
T1 sequence (Q01726 whole entry): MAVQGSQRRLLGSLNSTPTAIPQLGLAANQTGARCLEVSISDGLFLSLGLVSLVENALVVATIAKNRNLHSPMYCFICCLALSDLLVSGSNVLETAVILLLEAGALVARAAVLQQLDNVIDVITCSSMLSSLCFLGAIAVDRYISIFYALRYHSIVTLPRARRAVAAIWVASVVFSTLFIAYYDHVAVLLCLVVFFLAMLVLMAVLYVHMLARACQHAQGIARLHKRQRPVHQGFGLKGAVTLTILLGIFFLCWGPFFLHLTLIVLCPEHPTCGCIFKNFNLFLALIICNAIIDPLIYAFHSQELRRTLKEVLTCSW

Sequence of human MC4R (P32245 whole entry): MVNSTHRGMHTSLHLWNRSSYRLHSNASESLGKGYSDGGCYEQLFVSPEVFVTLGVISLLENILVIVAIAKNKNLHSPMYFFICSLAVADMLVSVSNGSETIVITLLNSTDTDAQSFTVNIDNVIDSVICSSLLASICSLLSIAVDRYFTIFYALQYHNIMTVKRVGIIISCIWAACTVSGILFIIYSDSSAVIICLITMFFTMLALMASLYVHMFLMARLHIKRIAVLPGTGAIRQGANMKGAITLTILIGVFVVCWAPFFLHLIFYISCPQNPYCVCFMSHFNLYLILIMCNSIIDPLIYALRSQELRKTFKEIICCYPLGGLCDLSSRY

Row | Compound | EC50 (human MC4R) | EC50 (Human MC1R) | Human MC1R IA % (Human MC1R)
1 | COc1ccc([C@@H]2CN(C(C)(C)C)C[C@@]2(F)C(=O)N2CC(c3ccc(C(F)(F)F)cc3N3CCC(C(=O)N(C)C)CC3)C2)cc1 [Example 249] |  | 37 nM | 149%
2 | COc1ccc([C@@H]2CN(C(C)(C)C)C[C@@]2(F)C(=O)N2CCC(c3ccc(C(F)(F)F)cc3C(N)=O)CC2)cc1 [Example 267] |  | 80 nM | 112%
3 | COc1ccc([C@@H]2CN(C(C)(C)C)C[C@@]2(F)C(=O)N2CCC(c3ccc(C(F)(F)F)cc3OCCCC(=O)NS(=O)(=O)N(C)C)CC2)cc1.Cl [Example 272, 4-[2-(1-{[(3R,4R)-1-tert-butyl-3-fluoro-4-(4-methoxyphenyl)pyrrolidin-3-yl]carbonyl}piperidin-4-yl)-5-(trifluoromethyl)phenoxy]-N-(dimethylsulfamoyl)butanamide hydrochloride] |  | 18 nM | 91%
4 | COC[C@H]1CN(C(=O)[C@]2(F)CN(C3CCOCC3)C[C@H]2c2ccc(OC)cc2)C[C@@H]1c1ccc(C(F)(F)F)cc1N1CCC(C#N)CC1.Cl.Cl [Example 278, 1-{2-[(3S,4R)-1-{[(3R,4R)-3-fluoro-4-(4-methoxyphenyl)-1-(tetrahydro-2H-pyran-4-yl)pyrrolidin-3-yl]carbonyl}-4-(methoxymethyl)pyrrolidin-3-yl]-5-(trifluoromethyl)phenyl}piperidine-4-carbonitrile dihydrochloride] |  | 39 nM | 46%
5 | COC[C@H]1CN(C(=O)[C@]2(F)CN(C3CCOCC3)C[C@H]2c2ccc(OC)cc2)C[C@@H]1c1ccc(C(F)(F)F)cc1N1CCC(c2nnn[nH]2)CC1.Cl.Cl [Example 279, [(3R,4R)-3-fluoro-4-(4-methoxyphenyl)-1-(tetrahydro-2H-pyran-4-yl)pyrrolidin-3-yl][(3R,4S)-3-(methoxymethyl)-4-{2-[4-(1H-tetrazol-5-yl)piperidin-1-yl]-4-(trifluoromethyl)phenyl}pyrrolidin-1-yl]methanone dihydrochloride] |  | 59 nM | 90%
6 | COc1ccc([C@@H]2CN(C(C)(C)C)C[C@@]2(F)C(=O)N2CCC(c3ccc(C(F)(F)F)cc3OCCCc3nnn[nH]3)CC2)cc1.Cl [Example 280, [(3R,4R)-1-tert-butyl-3-fluoro-4-(4-methoxyphenyl)pyrrolidin-3-yl](4-{2-[3-(1H-tetrazol-5-yl)propoxy]-4-(trifluoromethyl)phenyl}piperidin-1-yl)methanone hydrochloride] |  | 42 nM | 86%
7 | COc1ccc([C@@H]2CN(C(C)(C)C)C[C@@]2(F)C(=O)N2CCC(c3ccc(C(F)(F)F)cc3N3CCNCC3)CC2)cc1 [Example 281, [(3R,4R)-1-tert-butyl-3-fluoro-4-(4-methoxyphenyl)pyrrolidin-3-yl]{4-[2-(piperazin-1-yl)-4-(trifluoromethyl)phenyl]piperidin-1-yl}methanone] |  | 19 nM | 72%
8 | COc1ccc([C@@H]2CN(C(C)(C)C)C[C@@]2(F)C(=O)N2CCC(c3ccc(C(F)(F)F)cc3N3CCN(C(C)=O)CC3)CC2)cc1.Cl.Cl [Example 282, 1-{4-[2-(1-{[(3R,4R)-1-tert-butyl-3-fluoro-4-(4-methoxyphenyl)pyrrolidin-3-yl]carbonyl}piperidin-4-yl)-5-(trifluoromethyl)phenyl]piperazin-1-yl}ethanone dihydrochloride] |  | 27 nM | 79%
9 | COc1ccc([C@@H]2CN(C(C)(C)C)C[C@@]2(F)C(=O)N2CC[C@H](c3ccc(C(F)(F)F)cc3N3CCC(C(=O)O)CC3)C2)cc1.Cl.Cl [Example 286b, 1-{2-[(3R)-1-{[(3R,4R)-1-tert-butyl-3-fluoro-4-(4-methoxyphenyl)pyrrolidin-3-yl]carbonyl}pyrrolidin-3-yl]-5-(trifluoromethyl)phenyl}piperidine-4-carboxylic acid dihydrochloride] |  | 189 nM | 71%
10 | COc1ccc([C@@H]2CN(C3CCOC3)C[C@@]2(F)C(=O)N2CCC(c3ccc(C(F)(F)F)cc3N3CCC(C(=O)O)CC3)CC2)cc1 (stereo partly shown) [Example 289] |  | 124 nM | 55%
11 | COc1ccc([C@@H]2CN(C3CCOC3)C[C@@]2(F)C(=O)N2CCC(c3ccc(C(F)(F)F)cc3N3CCC(C(=O)O)CC3)CC2)cc1 (stereo partly shown) [Example 290] |  | 115 nM | 69%
12 | COc1ccc([C@@H]2CN(C(C)(C)C)C[C@@]2(F)C(=O)N2CCC(c3ccc(C(F)(F)F)cc3OCCCc3noc(=O)[nH]3)CC2)cc1.Cl [Example 295, 3-{3-[2-(1-{[(3R,4R)-1-tert-butyl-3-fluoro-4-(4-methoxyphenyl)pyrrolidin-3-yl]carbonyl}piperidin-4-yl)-5-(trifluoromethyl)phenoxy]propyl}-1,2,4-oxadiazole-5(4H)-one hydrochloride] |  | 31 nM | 91%
13 | COc1ccc([C@@H]2CN(C3CCCC3)C[C@@]2(F)C(=O)N2C[C@H](c3ccc(C(F)(F)F)cc3N3CCC(C(=O)O)CC3)C[C@H]2CC#N)cc1 [Example 300] |  |  | 93%
14 | COc1ccc([C@@H]2CN(C(C)(C)CO)C[C@@]2(F)C(=O)N2CCC(c3ccc(C(F)(F)F)cc3N3CCC(C(=O)O)CC3)CC2)cc1 [Example 320] |  | 30 nM | 79%
15 | CCC(=O)N1CCC(N2C[C@@H](c3ccc(OC)cc3)[C@](F)(C(=O)N3C[C@H](COC)[C@@H](c4ccc(C(F)(F)F)cc4N4CCC(C(=O)O)CC4)C3)C2)CC1 [Example 327] |  | 23 nM | 67%

Further compounds by falling EC50 (Human MC1R), results first:

Row | EC50 (human MC4R) | EC50 (Human MC1R) | Human MC1R IA % (Human MC1R) | Compound
16 |  | 14 nM | 81% | COc1ccc([C@@H]2CN(C(C)(C)C)C[C@@]2(F)C(=O)N2CCC(c3ccc(C(F)(F)F)cc3N3CCN(C(N)=O)CC3)CC2)cc1.Cl.Cl [Example 284, 4-[2-(1-{[(3R,4R)-1-tert-butyl-3-fluoro-4-(4-methoxyphenyl)pyrrolidin-3-yl]carbonyl}piperidin-4-yl)-5-(trifluoromethyl)phenyl]piperazine-1-carboxamide dihydrochloride]
17 |  | 13 nM | 79% | COc1ccc([C@@H]2CN(C(C)(C)C)C[C@@]2(F)C(=O)N2CCC(c3ccc(C(F)(F)F)cc3OCCCC(=O)NS(C)(=O)=O)CC2)cc1 [Example 273]
18 |  | 8.7 nM | 89% | COc1ccc([C@@H]2CN(CCCC(=O)N(C)C)C[C@@]2(F)C(=O)N2CCC(c3ccc(C(F)(F)F)cc3N3CCC(C(=O)O)CC3)CC2)cc1 [Example 304]
19 |  | 7.5 nM | 89% | COc1ccc([C@@H]2CN(C(C)(C)C)C[C@@]2(F)C(=O)N2CCC(c3ccc(C(F)(F)F)cc3N3CCC(C(=O)NS(C)(=O)=O)CC3)CC2)cc1 [Example 274]
20 |  | 6.8 nM | 96% | COC[C@H]1CN(C(=O)[C@]2(F)CN(CC(=O)N3CCCCC3)C[C@H]2c2ccc(OC)cc2)C[C@@H]1c1ccc(C(F)(F)F)cc1N1CCC(C(=O)O)CC1 [Example 306]
21 |  | 6.7 nM | 73% | COC[C@H]1CN(C(=O)[C@]2(F)CN(C3CCCC3)C[C@H]2c2ccc(OC)cc2)C[C@@H]1c1ccc(C(F)(F)F)cc1N1CCC(C(=O)N(C)CC(=O)O)CC1 [Example 269]
22 |  | 5.6 nM | 82% | COC[C@H]1CN(C(=O)[C@]2(F)CN(C3CCCC3)C[C@H]2c2ccc(OC)cc2)C[C@@H]1c1ccc(C(F)(F)F)cc1N1CCC(C(=O)N2CCC[C@@H]2C(=O)O)CC1 [Example 270]
23 |  | 4.4 nM | 105% | COc1ccc([C@@H]2CN(C(C)(C)C)C[C@@]2(F)C(=O)N2CC[C@@H](c3ccc(C(F)(F)F)cc3N3CCC(C(=O)O)CC3)C2)cc1.Cl.Cl [Example 286a, 1-{2-[(3S)-1-{[(3R,4R)-1-tert-butyl-3-fluoro-4-(4-methoxyphenyl)pyrrolidin-3-yl]carbonyl}pyrrolidin-3-yl]-5-(trifluoromethyl)phenyl}piperidine-4-carboxylic acid dihydrochloride]
24 |  | 3 nM | 115% | COC[C@H]1CN(C(=O)[C@]2(F)CN([C@H]3CC[C@H](OC)CC3)C[C@H]2c2ccc(OC)cc2)C[C@@H]1c1ccc(C(F)(F)F)cc1N1CCC(C(=O)N(C)C)CC1 [Example 256]
25 | 341 nM | 1.7 nM | 102% | COC[C@@H]1C[C@@H](c2ccc(F)cc2N2CCC(C(=O)O)CC2)CN1C(=O)[C@]1(F)CN([C@H]2CC[C@H](OC)CC2)C[C@H]1c1ccc(OC)cc1.Cl.Cl [Example 147, 1-{5-fluoro-2-[(3S,5S)-1-{[(3R,4R)-3-fluoro-1-(trans-4-methoxycyclohexyl)-4-(4-methoxyphenyl)pyrrolidin-3-yl]carbonyl}-5-(methoxymethyl)pyrrolidin-3-yl]phenyl}piperidine-4-carboxylic acid dihydrochloride]
26 |  | 0.7 nM | 83% | COc1ccc([C@@H]2CN(C3CCCC3)C[C@@]2(F)C(=O)N2C[C@H](c3ccc(C(F)(F)F)cc3N3CCC(C(=O)O)CC3)C[C@H]2CF)cc1 [Example 299]
